Source: ChEMBL document CHEMBL4425115, “Discovery and Structure-Activity Relationship (SAR) of a Series of Ethanolamine-Based Direct-Acting Agonists of Sphingosine-1-phosphate (S1P1)” (J Med Chem, 2016)
Converted amounts (≈) assume the structure as drawn.

Experiments:
[1] = Tmax in rat at 2 mg/kg, iv or 5 mg/kg, po; type: ADME, organism-based; details: in vivo
[2] = Cmax in cynomolgus monkey plasma at 1 mg/kg, iv or 1 mg/kg, po; type: ADME, organism-based, Macaca fascicularis
[3] = Oral bioavailability in mouse at 1 mg/kg; type: ADME, organism-based; details: in vivo
[4] = Volume of distribution at steady state in rat at 2 mg/kg, iv or 5 mg/kg, po; type: ADME, organism-based; details: in vivo
[5] = AUC (0 to 24 hrs) in mouse at 1 mg/kg, iv or 1 mg/kg, po; type: ADME, organism-based; details: in vivo
[6] = Clearance in dog at 1 mg/kg, iv; type: ADME, organism-based, Canis lupus familiaris; details: in vivo
[7] = Clearance in mouse at 1 mg/kg, iv; type: ADME, organism-based; details: in vivo
[8] = Volume of distribution at steady state in dog at 1 mg/kg, iv or 1 mg/kg, po; type: ADME, organism-based, Canis lupus familiaris; details: in vivo
[9] = Volume of distribution at steady state in cynomolgus monkey at 1 mg/kg, iv or 1 mg/kg, po; type: ADME, organism-based, Macaca fascicularis; details: in vivo
[10] = Metabolic stability in rat liver microsomes assessed as compound remaining; type: ADME, Microsome
[11] = Metabolic stability in mouse liver microsomes assessed as compound remaining; type: ADME, Microsome
[12] = Clearance in cynomolgus monkey at 1 mg/kg, iv; type: ADME, organism-based, Macaca fascicularis; details: in vivo
[13] = Oral bioavailability in rat at 5 mg/kg; type: ADME, organism-based; details: in vivo
[14] = Volume of distribution at steady state in mouse at 1 mg/kg, iv or 1 mg/kg, po; type: ADME, organism-based; details: in vivo
[15] = Oral bioavailability in cynomolgus monkey at 1 mg/kg; type: ADME, organism-based, Macaca fascicularis; details: in vivo
[16] = Metabolic stability in dog liver microsomes assessed as compound remaining; type: ADME, Canis lupus familiaris, Microsome
[17] = Cmax in mouse plasma at 1 mg/kg, iv or 1 mg/kg, po; type: ADME, organism-based
[18] = Metabolic stability in human liver microsomes assessed as compound remaining; type: ADME, Microsome
[19] = Oral bioavailability in dog at 1 mg/kg; type: ADME, organism-based, Canis lupus familiaris; details: in vivo
[20] = AUC (0 to 24 hrs) in rat at 2 mg/kg, iv or 5 mg/kg, po; type: ADME, organism-based; details: in vivo
[21] = Cmax in rat plasma at 2 mg/kg, iv or 5 mg/kg, po; type: ADME, organism-based
[22] = Tmax in dog at 1 mg/kg, iv or 1 mg/kg, po; type: ADME, organism-based, Canis lupus familiaris; details: in vivo
[23] = Half life in cynomolgus monkey at 1 mg/kg, iv; type: ADME, organism-based, Macaca fascicularis; details: in vivo
[24] = Half life in dog at 1 mg/kg, iv; type: ADME, organism-based, Canis lupus familiaris; details: in vivo
[25] = AUC (0 to 24 hrs) in dog at 1 mg/kg, iv or 1 mg/kg, po; type: ADME, organism-based, Canis lupus familiaris; details: in vivo
[26] = Cmax in dog plasma at 1 mg/kg, iv or 1 mg/kg, po; type: ADME, organism-based, Canis lupus familiaris
[27] = Tmax in cynomolgus monkey at 1 mg/kg, iv or 1 mg/kg, po; type: ADME, organism-based, Macaca fascicularis; details: in vivo
[28] = AUC (0 to 24 hrs) in cynomolgus monkey at 1 mg/kg, iv or 1 mg/kg, po; type: ADME, organism-based, Macaca fascicularis; details: in vivo
[29] = Tmax in mouse at 1 mg/kg, iv or 1 mg/kg, po; type: ADME, organism-based; details: in vivo
[30] = Clearance in rat at 2 mg/kg, iv; type: ADME, organism-based; details: in vivo
[31] = Metabolic stability in cynomolgus monkey liver microsomes assessed as compound remaining; type: ADME, Macaca fascicularis, Microsome
[32] = Half life in mouse at 1 mg/kg, iv; type: ADME, organism-based; details: in vivo
[33] = Half life in rat at 2 mg/kg, iv; type: ADME, organism-based; details: in vivo
[34] = Plasma concentration in Lewis rat at 3 mg/kg, po measured after 4 hrs; type: ADME, organism-based
[35] = Plasma concentration in Lewis rat at 3 mg/kg, po measured after 24 hrs; type: ADME, organism-based
[36] = Cmax in dog plasma at 0.5 mg/kg, iv or 0.5 mg/kg, po; type: ADME, organism-based, Canis lupus familiaris
[37] = Volume of distribution at steady state in dog at 0.5 mg/kg, iv or 0.5 mg/kg, po; type: ADME, organism-based, Canis lupus familiaris; details: in vivo
[38] = Permeability of the compound at pH 7.4 by PAMPA assay; type: ADME; details: read-out: permeability
[39] = Clearance in dog at 0.5 mg/kg, iv; type: ADME, organism-based, Canis lupus familiaris; details: in vivo
[40] = Tmax in dog at 0.5 mg/kg, iv or 0.5 mg/kg, po; type: ADME, organism-based, Canis lupus familiaris; details: in vivo
[41] = Half life in dog at 0.5 mg/kg, iv; type: ADME, organism-based, Canis lupus familiaris; details: in vivo
[42] = Oral bioavailability in dog at 0.5 mg/kg; type: ADME, organism-based, Canis lupus familiaris; details: in vivo
[43] = Aqueous solubility of the compound at pH 6.5; type: physicochemical
[44] = Aqueous solubility of the compound at pH 1; type: physicochemical
[45] = Lipophilicity, log D of the compound at pH 6.5; type: physicochemical; details: buffer
[46] = Dissociation constant, pKa of the compound; type: physicochemical
[47] = AUC (0 to 24 hrs) in dog at 0.5 mg/kg, iv or 0.5 mg/kg, po; type: ADME, organism-based, Canis lupus familiaris; details: in vivo
in vivo = details: Lewis, rat, plasma, po, 30 mg/kg
[48] = Plasma concentration in Lewis rat at 10 mg/kg, po measured after 24 hrs; type: ADME, organism-based
[49] = Plasma concentration in Lewis rat at 10 mg/kg, po measured after 4 hrs; type: ADME, organism-based
[50] = Half life in human administered as single dose; type: ADME

Tmax [1]	Cmax [2]	bioavailability [3]	Vdss [4]	AUC(0-t) [5]	CL [7]	Vdss [9]	Stability [10]	Stability [11]	CL [12]	bioavailability [13]	Vdss [14]	bioavailability [15]	Stability [16]	Cmax [17]	Stability [18]	AUC(0-t) [20]	Cmax [21]	t1/2 [23]	Tmax [27]	Structure (SMILES)	further results
3.3 h	1100 nM	66%	1.2 L/kg	362 µM·h	100 mL/min/kg	1.8 L/kg	> 98%	> 98%	700 mL/min/kg	76%	0.1 L/kg	88%	> 98%	45000 nM	> 98%	60 µM·h	5300 nM	33 h	4 h	O=C(O)[C@H]1CCCN(C[C@@H](O)c2ccc(-c3noc(-c4onc(-c5ccccc5)c4C(F)(F)F)n3)cc2)C1	CL [6]: 1400 mL/min/kg; Vdss [8]: 1.4 L/kg; bioavailability [19]: 74%; Tmax [22]: 0.8 h; t1/2 [24]: 12 h; AUC(0-t) [25]: 1.3 µM·h; Cmax [26]: 840 nM; AUC(0-t) [28]: 17 µM·h; Tmax [29]: 1 h; CL [30]: 1700 mL/min/kg; Stability [31]: > 98%; t1/2 [32]: 15 h; t1/2 [33]: 9 h
																				CCCc1c(-c2nc(-c3ccc(C(O)CN4CCC[C@H](CC(=O)O)C4)cc3)no2)noc1-c1ccccc1 (some centres not stated)	concentration at 4 h [34]: 685 nM; concentration at 24 h [35]: 40 nM
3.7 h	1500 nM	62%	2.2 L/kg	315 µM·h	100 mL/min/kg	1.1 L/kg	> 98%	> 98%	500 mL/min/kg	87%	0.2 L/kg	90%	> 98%	44000 nM	> 98%	66 µM·h	4700 nM	27 h	10 h	O=C(O)C[C@H]1CCCN(C[C@@H](O)c2ccc(-c3noc(-c4onc(-c5ccccc5)c4C(F)(F)F)n3)cc2)C1	Cmax [36]: 489000 nM; Vdss [37]: 1.8 L/kg; Papp [38]: 29.5 ×10⁻⁶ cm/s; CL [39]: 1300 mL/min/kg; Tmax [40]: 4 h; t1/2 [41]: 24 h; bioavailability [42]: 90%; solubility [43]: 229 µg/mL (≈ 422 µM); solubility [44]: > 850 µg/mL; AUC(0-t) [28]: 26 µM·h; Tmax [29]: 0.5 h; logD [45]: 3.94; CL [30]: 1000 mL/min/kg; pKa [46]: 8.8; Stability [31]: > 98%; t1/2 [32]: 23 h; t1/2 [33]: 28 h; AUC(0-t) [47]: 7.8 µM·h
																				CCCc1c(-c2nc(-c3ccc(C(O)CNCCC(=O)O)cc3)no2)noc1-c1ccccc1 (configuration not stated)	concentration at 4 h (in vivo): 142 nM
																				CCCc1c(-c2nc(-c3ccc(C(O)CN4CCC[C@H](C(=O)O)C4)cc3)no2)noc1-c1ccccc1 (some centres not stated)	concentration at 24 h [48]: 38 nM; concentration at 4 h [49]: 1600 nM
																				CCCCCCCCc1ccc(CCC(N)(CO)CO)cc1 [FINGOLIMOD]	half-life [50]: 144 to 216 h
